This is an account of results in US20260226086A1, “COMPOUNDS AND COMPOSITIONS AS STAT3 DEGRADERS AND USES THEREOF” (REGENTS OF THE UNIVERSITY OF MICHIGAN, priority 2023, published 2026).

One experiment addresses T1, STAT3 (Homo sapiens, UniProt P40763).
T1 construct: This cell line is a clone created by using CRISPR-Cas9 to fuse HiBiT to the 3′ end of STAT3 in HeLa cells; host or cells: STAT3-HiBiT KI HeLa cell line (CRISPR-Cas9 knock-in clone)
Nature of the experiment: HiBiT assay, STAT3 degradation in STAT3-HiBiT KI HeLa cells. Type of experiment: cell-based. The conditions noted are these: for DC50 / Dmax at 1 µM: 24 h; for DC50: read-out: STAT3 Degradation (HeLa 24 h HiBit) DC50. How it is done: STAT3 degradation may be determined by HiBiT assay. STAT3-HiBiT KI HeLa cell line, which is a clone created by using CRTISPR-Cas9 to fuse HiBiT to the 3′ end of STAT3 in HeLa cells, may be used for this assay. In a typical procedure, cells seeded at certain amounts of cells (e.g., 20000 cells) per well are incubated with serially diluted compounds for certain period of time (e.g., 24 hours) under certain conditions (e.g., at 37° C. with 5% CO2). At the end of treatment, Nano-Glo HiBiT Lytic Detection reagents is added to the wells and luminescence is acquired on TECAN SPARK plate reader. Untreated cells are used as control. Data points are fit with a four-parameter equation to generate a concentration-response curve. IC50 values are calculated using a nonlinear regression analysis of the mean±SD from triplicate.
STAT3-HiBiT KI HeLa cell line was purchased from Promega. This cell line is a clone created by using CRISPR-Cas9 to fuse HiBiT to the 3′ end of STAT3 in HeLa cells. DMEM medium and FBS were purchased from Gibco/Thermo Fisher Scientific. STAT3 degradation was determined based on quantification of luminescent signal using Nano-Glo HiBiT Lytic Detection System. In a typical procedure, cells seeded at 20000 cells per well in 96-well white plates (Corning) were incubated with serially diluted compounds for 24 hours at 37° C. with 5% CO2. At the end of treatment, Nano-Glo HiBiT Lytic Detection reagents was added to the wells and luminescence was acquired on TECAN SPARK plate reader. Untreated cells were used as control. Data points were fit with a four-parameter equation to generate a concentration-response curve. IC50 values were calculated using a nonlinear regression analysis of the mean±SD from triplicate.
Background: The HiBiT peptide binds its large partner to form an active luciferase.

The test system of another experiment is SUP-M2 cells. The experiment can be described thus: CellTiter-Glo 2.0 cell viability assay, SUP-M2. The conditions noted are these: SUP-M2, 96 h, 4 days. Type of experiment: cell-based. How it is done: For example, cell viability may be determined by CellTiter-Glo 2.0 Cell Viability Assay. In a typical procedure, cells seeded at certain amounts of cells (e.g., 1000 cells) per well are incubated with serially diluted compounds for certain period (e.g., 4 days) under certain conditions (e.g., at 37° C. with 5% CO2). At the end of treatment, CellTiter-Glo 2.0 is added to the wells and luminescence is acquired on TECAN SPARK plate reader. Untreated cells are used as control, Data points are fit with an equation (e.g., a four-parameter equation) to generate a concentration-response curve. IC50 values are calculated using a nonlinear regression analysis of the mean±SD from triplicate.
SU-DHL-1 and SUP-M2 cell viability was determined by CellTiter-Glo 2.0 Cell Viability Assay (Promega). SU-DHL-1 cell line was purchased from ATCC (Manassas, VA) and SUP-M2 (ACC-509) was purchased from DSMZ (Germany). RPMI 1640 medium and fetal bovine serum (FBS) were purchased from Gibco/Thermo Fisher Scientific. In a typical procedure, cells seeded at 1000 cells per well in 384-well white plates (Corning) were incubated with serially diluted compounds for 4 days at 37° C. with 5% C02. At the end of treatment, CellTiter-Glo 2.0 was added to the wells and luminescence was acquired on TECAN SPARK plate reader. Untreated cells were used as control. Data points were fit with a four-parameter equation to generate a concentration-response curve. IC50 values were calculated using a nonlinear regression analysis of the mean±SD from triplicate.
Background: ATP-based viability assays read luminescence as a measure of living cells.

T1 sequence (P40763 whole entry): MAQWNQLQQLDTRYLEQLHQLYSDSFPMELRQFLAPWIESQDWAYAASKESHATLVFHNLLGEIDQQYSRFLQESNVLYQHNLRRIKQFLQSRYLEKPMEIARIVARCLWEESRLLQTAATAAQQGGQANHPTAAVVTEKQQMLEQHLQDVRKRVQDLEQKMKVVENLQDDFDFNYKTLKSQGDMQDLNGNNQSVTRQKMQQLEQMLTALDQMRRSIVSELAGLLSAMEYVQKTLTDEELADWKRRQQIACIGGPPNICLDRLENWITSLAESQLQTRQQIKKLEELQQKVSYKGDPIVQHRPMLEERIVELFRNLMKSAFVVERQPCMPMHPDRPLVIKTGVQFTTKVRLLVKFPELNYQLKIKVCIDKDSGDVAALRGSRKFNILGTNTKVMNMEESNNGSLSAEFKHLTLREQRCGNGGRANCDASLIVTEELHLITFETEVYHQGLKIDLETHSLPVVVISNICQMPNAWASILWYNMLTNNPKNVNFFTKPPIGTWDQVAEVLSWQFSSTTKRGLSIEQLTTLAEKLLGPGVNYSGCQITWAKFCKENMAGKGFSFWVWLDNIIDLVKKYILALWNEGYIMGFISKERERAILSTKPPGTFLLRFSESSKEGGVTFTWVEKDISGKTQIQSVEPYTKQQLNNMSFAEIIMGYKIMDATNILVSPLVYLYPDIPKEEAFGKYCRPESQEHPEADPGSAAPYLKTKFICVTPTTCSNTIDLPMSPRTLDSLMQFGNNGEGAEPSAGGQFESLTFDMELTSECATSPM

`CCS(=O)(=O)c1ccc(CNC(=O)[C@H](CCC(N)=O)NC(=O)[C@@H]2CC[C@@H]3CCN(C(=O)CCCCCc4cn([C@H](C(=O)N5C[C@H](O)C[C@H]5C(=O)N[C@@H](COCCOCCOC)c5ccc(-c6scnc6C)cc5)C(C)(C)C)nn4)C[C@H](NC(=O)c4cc5cc(C(=O)P(=O)(O)O)ccc5[nH]4)C(=O)N32)cc1` [Compound 40]: the half-maximal degradation concentration (DC50) on STAT3 fell in the range of 10 to 100 nM. For the same molecule, on STAT3 (@1 μM), the “STAT3 Degradation (HeLa 24 h HiBit) Dmax (@1 μM)” value is “A (A (>=80%))”. In the experiment on SUP-M2 cells, the half-inhibitory concentration (IC50) was 10 to 100 nM.

Molecule `CCS(=O)(=O)c1ccc(CNC(=O)[C@H](CCC(N)=O)NC(=O)[C@@H]2CC[C@@H]3CCN(C(=O)CCCCCc4cn([C@@H](C(=O)N5C[C@@H](O)C[C@@H]5C(=O)N[C@@H](C)c5ccc(-c6scnc6C)cc5)C5CCCCC5)nn4)C[C@H](NC(=O)c4cc5cc(C(=O)P(=O)(O)O)ccc5[nH]4)C(=O)N32)cc1` [Compound 28, (2-(((5S,8S,10aR)-8-(((S)-5-amino-1-((4-(ethylsulfonyl)benzyl)amino)-1,5-dioxopentan-2-yl)carbamoyl)-3-(6-(1-((R)-1-cyclohexyl-2-((2R,4S)-4-hydroxy-2-(((S)-1-(4-(4-methylthiazol-5-yl)phenyl)ethyl)carbamoyl)pyrrolidin-1-yl)-2-oxoethyl)-1H-1,2,3-triazol-4-yl)hexanoyl)-6-oxodecahydro-pyrrolo[1,2-a][1,5]diazocin-5-yl)carbamoyl)-1H-indole-5-carbonyl)phosphonic acid] displayed a Dmax at 1 µM at STAT3 (@1 μM) greater than 80%. Moreover, at STAT3, the DC50 is less than 10 nM.

Consider `COCCOCCOCCOC[C@H](NC(=O)[C@@H]1C[C@@H](O)CN1C(=O)[C@@H](n1cc(CCCc2cccc(OC[C@H](CCC(N)=O)NC(=O)[C@@H]3CC[C@@H]4CCN(C(C)=O)C[C@H](NC(=O)c5cc6cc(C(=O)P(=O)(O)O)ccc6[nH]5)C(=O)N43)c2Cl)nn1)C(C)(C)C)c1ccc(-c2scnc2C)cc1` [Compound 35, (2-(((5S,8S,10aR)-3-acetyl-8-(((S)-5-amino-1-(2-chloro-3-(3-(1-((S)-1-((2S,4R)-4-hydroxy-2-(((R)-13-(4-(4-methylthiazol-5-yl)phenyl)-2,5,8,11-tetraoxatridecan-13-yl)carbamoyl)pyrrolidin-1-yl)-3,3-dimethyl-1-oxobutan-2-yl)-1H-1,2,3-triazol-4-yl)propyl)phenoxy)-5-oxopentan-2-yl)carbamoyl)-6-oxodecahydropyrrolo[1,2-a][1,5]diazocin-5-yl)carbamoyl)-1H-indole-5-carbonyl)phosphonic acid], for which the maximal degradation (Dmax) at 1 µM on STAT3 (@1 μM) is greater than 80%. The DC50 at STAT3 lay in the range of 10 to 100 nM. The IC50 in the experiment with SUP-M2 cells lay in the range of 10 to 100 nM.

With `CCS(=O)(=O)c1ccc(CNC(=O)[C@H](CCC(N)=O)NC(=O)[C@@H]2CC[C@@H]3CCN(C(=O)CCCCCc4cn([C@H](C(=O)N5C[C@H](O)C[C@H]5C(=O)N[C@@H](COCCOCCOCCOC)c5ccc(-c6scnc6C)cc5)C(C)(C)C)nn4)C[C@H](NC(=O)c4cc5cc(C(=O)P(=O)(O)O)ccc5[nH]4)C(=O)N32)cc1` [Compound 45], the Dmax at 1 µM on STAT3 (@1 μM) is greater than 80%. For the same molecule, the 50% degradation concentration (DC50) at STAT3 lay within 10 to 100 nM. For the same molecule, in the experiment on SUP-M2 cells, the IC50 is 10 to 100 nM.

With `COCCOCCOC[C@H](NC(=O)[C@@H]1C[C@@H](O)CN1C(=O)[C@@H](n1cc(CCCc2cccc(OC[C@H](CCC(N)=O)NC(=O)[C@@H]3CC[C@@H]4CCN(C(C)=O)C[C@H](NC(=O)c5cc6cc(C(=O)P(=O)(O)O)ccc6[nH]5)C(=O)N43)c2Cl)nn1)C(C)(C)C)c1ccc(-c2scnc2C)cc1` [Compound 27, (2-(((5S,8S,10aR)-3-acetyl-8-(((S)-5-amino-1-(2-chloro-3-(3-(1-((S)-1-((2S,4R)-4-hydroxy-2-(((R)-2-(2-(2-methoxyethoxy)ethoxy)-1-(4-(4-methylthiazol-5-yl)phenyl)ethyl)carbamoyl)pyrrolidin-1-yl)-3,3-dimethyl-1-oxobutan-2-yl)-1H-1,2,3-triazol-4-yl)propyl)phenoxy)-5-oxopentan-2-yl)carbamoyl)-6-oxodecahydropyrrolo[1,2-a][1,5]diazocin-5-yl)carbamoyl)-1H-indole-5-carbonyl)phosphonic acid], the Dmax at 1 µM at STAT3 (@1 μM) was greater than 80%. The DC50 at STAT3 is less than 10 nM.

Molecule `CCS(=O)(=O)c1ccc(CNC(=O)[C@H](CCC(N)=O)NC(=O)[C@@H]2CC[C@@H]3CCN(C(=O)CCCCCc4cn([C@@H](C(=O)N5C[C@@H](O)C[C@@H]5C(=O)N[C@@H](C)c5ccc(-c6scnc6C)cc5)C5CCOCC5)nn4)C[C@H](NC(=O)c4cc5cc(C(=O)P(=O)(O)O)ccc5[nH]4)C(=O)N32)cc1` [Compound 29, (2-(((5S,8S,10aR)-8-(((S)-5-amino-1-((4-(ethylsulfonyl)benzyl)amino)-1,5-dioxopentan-2-yl)carbamoyl)-3-(6-(1-((R)-2-((2R,4S)-4-hydroxy-2-(((S)-1-(4-(4-methylthiazol-5-yl)phenyl)ethyl)carbamoyl)pyrrolidin-1-yl)-2-oxo-1-(tetrahydro-2H-pyran-4-yl)ethyl)-1H-1,2,3-triazol-4-yl)hexanoyl)-6-oxodecahydropyrrolo[1,2-a][1,5]diazocin-5-yl)carbamoyl)-1H-indole-5-carbonyl)phosphonic acid] returned a Dmax at 1 µM on STAT3 (@1 μM) greater than 80%. Also, on STAT3, the half-maximal degradation concentration (DC50) was less than 10 nM.

Consider `CCS(=O)(=O)c1ccc(OC[C@H](CCC(N)=O)NC(=O)[C@@H]2CC[C@@H]3CCN(C(=O)CCCCc4cn([C@H](C(=O)N5C[C@H](O)C[C@H]5C(=O)N[C@@H](C)c5ccc(-c6scnc6C)cc5)C(C)(C)C)nn4)C[C@H](NC(=O)c4cc5cc(C(=O)P(=O)(O)O)ccc5[nH]4)C(=O)N32)cc1` [Compound 34, (2-(((5S,8S,10aR)-8-(((S)-5-amino-1-(4-(ethylsulfonyl)phenoxy)-5-oxopentan-2-yl)carbamoyl)-3-(5-(1-((S)-1-((2S,4R)-4-hydroxy-2-(((S)-1-(4-(4-methylthiazol-5-yl)phenyl)ethyl)carbamoyl)pyrrolidin-1-yl)-3,3-dimethyl-1-oxobutan-2-yl)-1H-1,2,3-triazol-4-yl)pentanoyl)-6-oxodecahydropyrrolo[1,2-a][1,5]diazocin-5-yl)carbamoyl)-1H-indole-5-carbonyl)phosphonic acid], for which, at STAT3 (@1 μM), the Dmax at 1 µM was 60 to 80%. The half-maximal degradation concentration (DC50) on STAT3 fell in the range of 10 to 100 nM.

Take `CCS(=O)(=O)c1ccc(CNC(=O)[C@H](CCC(N)=O)NC(=O)[C@@H]2CC[C@@H]3CCN(C(=O)CCCCCc4cn([C@H](C(=O)N5C[C@H](O)C[C@H]5C(=O)N[C@@H](COCCOCCOC)c5ccc(-c6scnc6C)cc5)C(C)(C)C)nn4)C[C@H](NC(=O)c4cc5cc(C(=O)P(=O)(O)O)ccc5[nH]4)C(=O)N32)cc1` [Compound 26]: the Dmax at 1 µM at STAT3 (@1 μM) was greater than 80%. The half-maximal degradation concentration (DC50) on STAT3 is less than 10 nM.

On STAT3 (@1 μM), `CC(=O)N1CC[C@H]2CC[C@@H](C(=O)N[C@@H](CCC(N)=O)COc3cccc(CCCc4cn([C@H](C(=O)N5C[C@H](O)C[C@H]5C(=O)N[C@@H](C)c5ccc(-c6scnc6C)cc5)C(C)(C)C)nn4)c3Cl)N2C(=O)[C@@H](NC(=O)c2cc3cc(C(F)(F)P(=O)(O)O)ccc3s2)C1` [Compound 44] showed a Dmax at 1 µM greater than 80%. Besides, the half-maximal degradation concentration (DC50) on STAT3 was less than 10 nM.

What is called DC50 is the concentration at which degradation of the target reaches its halfway point. The term IC50 denotes the concentration needed to halve the response being measured. A low value points to inhibition by little substance. The Dmax is the greatest extent of degradation seen. A low value points to a partial loss of target.
